Ki, IC50 and Emax data for 14 compounds are collected here from patent US9365534B2, “Arylated camphenes, processes for their preparation and uses thereof” (Yissum Research Development Company of the Hebrew …, priority 2009, dated 2016).

Where two headings read alike, the source gives them in different places. A value given as a limit tells only on which side of the number the result lay.

Test [1] deals with T1, human CB1 receptor (Homo sapiens (Human), UniProt P21554). The test can be described thus: Membrane competition binding assay with [3H]-CP 55,940, CHO-CB1 membranes. To be noted: read-out: Competition Binding Assay CB1 Receptor Ki. From the text:
(§1) The cDNA clones for human HA-tagged CB1 and CB2 receptors were obtained from the Missouri S&T cDNA Resource Center (www.cdna.org) in cloning vector pcDNA3.1+. The vector containing the human CB2 receptor was transfected directly into CHO-KI cells obtained from ATCC. The HA-tagged human CB1 receptor sequence was subcloned into the pef4-V5-HisA vector with Kpn1 and Pme1 restriction enzymes and subsequently transfected into CHO-K1 cells. Cells were clonally isolated by limited dilution and screened by immunocytochemistry for expression of the HA tag.
(§2) Cells were maintained in DMEM/F12 media supplemented with 10% fetal bovine serum (FBS), 100 units/ml penicillin and 100 μg/ml streptomycin and 2 mM L-glutamine. Transfected cell lines were maintained with additional 150 ug/ml zeocin for pEF HA-CB1 transfected cells and 500 ug/ml G-418 for pcDNA HA-CB2 transfected cells (all reagents obtained from Invitrogen).
(§3) Cells were grown to confluence and harvested in ice cold phosphate buffered saline with 5 mM EDTA. Cells were spun at 200×g for 10 min and frozen at −80° C. until required. Cell pellets were thawed with cold 0.32 M sucrose and homogenised with a glass homogeniser. The homogenate was spun at 1000×g for 10 min at 4° C. and the supernatant spun in a Sorvall ultracentrifuge for 30 min at 100,000×g. The pellet was then washed in ice cold water and re-spun twice more. The final pellet was resuspended in 50 mM Tris pH 7.5, 0.5 mM EDTA. Protein concentration was determined using the Dc protein assay kit (BioRad, Hercules, Calif., USA).
(§4) Membranes (5-10 μg) were incubated with radioligand and a range of concentrations of test compounds in binding buffer (50 mM Tris pH 7.4, 5 mM MgCl2, 1 mM EDTA) with 0.5% (w/v) bovine serum albumin (BSA) (ICP Bio, New Zealand), at 30° C. for 60 min. Stock solutions of putative cannabinoid ligands were prepared in dimethyl sulfoxide to a concentration of 10 mM. Six different final concentrations of compounds were used ranging from 50 μM to 0.1 nM. […] Assays were terminated by addition of 2 ml ice cold binding buffer and filtration through GF/C filters (Whatman) pre-soaked in cold binding buffer, followed by two washes in the same buffer.
(§5) Radioactivity was determined by incubation of filters with Irgasafe scintillation fluid (PerkinElmer) and scintillation counting in a Wallac Trilux using Microbeta Trilux software. Data was analysed using the Prism 4.02 programme (GraphPad Software, San Deigo, Calif., USA).
(§6) All data was analyzed using Prism 4.02. For binding data the Ki was determined from IC50 values derived from competition binding data fitted with one site competition non-linear regression analysis by Prism 4.02 using the Kd values reported above.

Test [2] addresses T2, human CB2 receptor (Homo sapiens (Human), UniProt P34972). The test can be described thus: Membrane competition binding assay with [3H]-CP 55,940, CHO-CB2 membranes.
Description: as §1, §2, §3, §4, §5, §6

For test [3], the target named is T1, human CB1 receptor. Briefly: cell-based. Conditions: for IC50: whole cells expressing CB1, 50 μM forskolin, read-out: cAMP Assay CB1 Receptor IC50.
Description: as §1, §2
(§7) Cells were seeded at a density of 10,000 cells per well in poly-L-lysine treated 96-well culture plates (BD Biosciences). The following day wells were incubated with 40 μl DMEM/F12 containing 0.5% (w/v) BSA and 0.5 mM 3-isobutyl-1-methylxanthine (Sigma-Aldrich) for 30 minutes prior to 15 min stimulation with 50 μM forskolin (Tocris Cookson) and varying concentrations of indicated compounds at 37° C., 5% CO2. Assays were stopped by removal of media and addition of 100% ice cold ethanol. Plates were then frozen for a minimum of two hours before complete evaporation of ethanol. The well contents were then reconstituted in 50 μl cAMP assay buffer (20 mM HEPES pH 7.5 and 5 mM EDTA). Half of the reconstituted sample was transferred to round bottom 96-well plates (Greiner Bio-One GmbH) with 50 μl 0.01% w/v PKA (cAMP dependent protein kinase (Sigma-Aldrich) in 1 mM Na citrate pH 6.5 with 2 mM dithiothreitol) and 25 μl [^3H]-cAMP (at 22 nM in cAMP assay buffer) (GE Healthcare, Life Sciences). This was allowed to equilibrate for 3-18 hours. Following this a charcoal slurry (5% (w/v) activated charcoal and 0.2% (w/v) BSA in cAMP assay buffer) was added to the samples and the plates centrifuged at 3000×g, 4° C. for 5 min. Radioactive counts within the supernatant were then determined as described for competition binding assays.
(§8) pIC50 values were determined from cAMP assays by fitting a sigmoidal concentration response curve using Prism 4.02.

The target of test [4] is T2, human CB2 receptor. The test can be described thus: cell-based.
Description: as §1, §2, §7, §8

The mark [5] stands for this setting: CHO-CB2 cellular membranes, 2.5 nM [3H]-CP 55,940.
Where [6] appears, read: whole cells expressing CB2, 50 μM forskolin; read-out: cAMP Assay CB2 Receptor IC50.
Where [7] appears, read: CHO-CB1 cellular membranes, 2.5 nM [3H]-CP 55,940.
Setting [8] is: CHO, read-out: cAMP Assay CB2 Receptor Emax.
[9] abbreviates: read-out: cAMP Assay CB2 Receptor IC50.

T1 sequence (P21554 whole entry): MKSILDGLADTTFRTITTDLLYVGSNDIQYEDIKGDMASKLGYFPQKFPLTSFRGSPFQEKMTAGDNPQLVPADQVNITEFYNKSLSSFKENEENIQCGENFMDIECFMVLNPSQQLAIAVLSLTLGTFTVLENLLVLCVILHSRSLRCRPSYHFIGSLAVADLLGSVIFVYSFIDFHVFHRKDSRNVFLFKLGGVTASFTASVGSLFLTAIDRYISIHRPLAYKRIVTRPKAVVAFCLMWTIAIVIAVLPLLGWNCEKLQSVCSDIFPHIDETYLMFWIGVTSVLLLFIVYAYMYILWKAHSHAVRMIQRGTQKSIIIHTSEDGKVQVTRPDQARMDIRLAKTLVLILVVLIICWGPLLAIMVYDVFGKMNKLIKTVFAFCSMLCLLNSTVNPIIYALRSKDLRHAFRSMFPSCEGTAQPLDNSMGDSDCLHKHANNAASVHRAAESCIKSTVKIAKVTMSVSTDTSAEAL

In general, Ki refers to the dissociation constant of the complex between target and ligand, obtained from inhibition or displacement. On to `CCCCCCC(C)(C)c1cc(O)c2c(c1)OC(C)(C)[C@@H]1CC=C(CO)C[C@@H]21` [HU-210, 1,1-Dimethylheptyl-11-hydroxy-tetrahydrocannabinol, reference compound], for which, in test [1], the Ki turned out to be 0.00294 µM.
The term IC50 denotes the concentration needed to halve the response being measured. Take `CCCCCCC(C)(C)c1cc(OC)c(C2=C[C@H]3CC[C@]2(C)C3(C)C)c(OC)c1` [HU-907, (1R,4R)-2-(2,6-dimethoxy-4-(2-methyloctan-2-yl)phenyl)-1,7,7-trimethylbicyclo[2.2.1]hept-2-ene]: the results for the inhibitory constant (Ki) in test [2] (setting [5]) and in test [1] (setting [7]) were 2.51 µM and over 50 µM, respectively. The IC50 in test [3] and in test [4] (setting [6]) was over 50 µM throughout.
On to `CCCCCCC(C)(C)c1cc(OC)c(C2=C[C@@H]3CC[C@@]2(C)C3(C)C)c(OC)c1` [HU-908, (1S,4S)-2-(2,6-dimethoxy-4-(2-methyloctan-2-yl)phenyl)-1,7,7-trimethylbicyclo[2.2.1]hept-2-ene], for which the Ki in test [2] (setting [5]) and in test [1] (setting [7]) was over 50 µM each time. The IC50 in test [3] and in test [4] (setting [6]) was over 50 µM throughout.
A word on the Emax: it is the size of the effect at its maximum, as opposed to the concentration needed. In the case of `CCCCCCC(C)(C)c1cc(OC)c(C2=C[C@H]3CC[C@]2(C(=O)OC)C3(C)C)c(OC)c1` [HU-912, (1S,4R)-methyl-2-(2,6-dimethoxy-4-(2-methyloctan-2-yl)phenyl)-7,7-dimethylbicyclo[2.2.1]hept-2-ene-1-carboxylate], the Ki in test [2] (setting [5]) is 0.0771 µM; in test [1] (setting [7]) it was over 10 µM. The Emax in test [3] (CHO, percentage of maximal response of HU-210, mean ± SEM, read-out: cAMP Assay CB1 Receptor Emax) was 112 ± 8%; in test [4] (CHO; read-out: cAMP Assay CB2 Receptor Emax) it was 107 ± 4%. Besides, the IC50 in test [3] was found to be 3.37 µM; in test [4] (setting [6]), 0.239 µM.
Take `CCCCCCC(C)(C)c1cc(OC)c(C2=C[C@]3(C)CC[C@H]2C3(C)C)c(OC)c1` [HU-917, (1S,4S)-3-(2,6-dimethoxy-4-(2-methyloctan-2-yl)phenyl)-1,7,7-trimethylbicyclo[2.2.1]hept-2-ene]: the Ki in test [2] (setting [5]) and in test [1] (setting [7]) was over 50 µM throughout. The IC50 in test [3] and in test [4] (setting [6]) was over 50 µM throughout.
Turning to `CCCCCCC(C)(C)c1cc(OC)c(C2=C[C@@]3(C)CC[C@@H]2C3(C)C)c(OC)c1` [HU-918, (1R,4R)-3-(2,6-dimethoxy-4-(2-methyloctan-2-yl)phenyl)-1,7,7-trimethylbicyclo[2.2.1]hept-2-ene], the Ki in test [2] (setting [5]) and in test [1] (setting [7]) was over 50 µM in each case. The IC50 in test [3] and in test [4] (setting [6]) was over 50 µM each time.
In the case of `CCCCCc1cc(OC)c(C2C(=O)[C@]3(C)CC[C@H]2C3(C)C)c(OC)c1` (stereo partly drawn) [HU-936, (1R,4R)-3-(2,6-dimethoxy-4-pentylphenyl)-1,7,7-trimethylbicyclo[2.2.1]heptan-2-one], the values for the Ki in test [2] (setting [5]) and in test [1] (setting [7]) were 1.72 µM and over 50 µM, respectively. Besides, the IC50 in test [3] and in test [4] (setting [6]) was over 50 µM each time.
Regarding `CCCCCc1cc(OC)c(C2C(O)[C@]3(C)CC[C@H]2C3(C)C)c(OC)c1` (stereo partly drawn) [HU-938, (1R,4R)-3-(2,6-dimethoxy-4-pentylphenyl)-1,7,7-trimethylbicyclo[2.2.1]heptan-2-ol], the results for the Ki in test [2] (setting [5]) and in test [1] (setting [7]) were 7.91 µM and over 50 µM, respectively. The IC50 in test [3] and in test [4] (setting [6]) was over 50 µM each time.
Regarding `CCCCCc1cc(OC)c(C2=C[C@@H]3CC[C@@]2(CO)C3(C)C)c(OC)c1` [HU-969, (1R,4S)-(2-(2,6-dimethoxy-4-pentylphenyl)-7,7-dimethylbicyclo[2.2.1]hept-2-en-1-yl)methanol], the Ki in test [2] was 6.46 µM; in test [1] (setting [7]), over 50 µM. The IC50 in test [3] and in test [4] was over 50 µM each time.
With `CCCCCc1cc(OC)c(C2=C[C@H]3CC[C@]2(CO)C3(C)C)c(OC)c1` [HU-970, (1S,4R)-(2-(2,6-dimethoxy-4-pentylphenyl)-7,7-dimethylbicyclo[2.2.1]hept-2-en-1-yl)methanol], the figures for the Ki in test [2] and in test [1] (setting [7]) were 1.27 µM and over 50 µM, respectively. Also, the IC50 in test [3] is over 50 µM; in test [4] (setting [9]), 1.15 µM. Further, in test [4] (setting [8]), the Emax worked out at 38 ± 2%.
Consider `CCCCCc1cc(OC)c(C2=C[C@@H]3CC[C@@]2(C(=O)OC)C3(C)C)c(OC)c1` [HU-971, (1R,4S)-methyl-2-(2,6-dimethoxy-4-pentylphenyl)-7,7-dimethylbicyclo[2.2.1]hept-2-ene-1-carboxylate], for which the Ki in test [2] was 0.704 µM; in test [1] (setting [7]), over 50 µM. The 50% inhibitory concentration (IC50) was over 50 µM in test [3] and 1.53 µM in test [4] (setting [9]). Moreover, the Emax in test [4] (setting [8]) was 31 ± 4%.
As to `CCCCCc1cc(OC)c(C2=C[C@H]3CC[C@]2(C(=O)OC)C3(C)C)c(OC)c1` [HU-972, (1S,4R)-methyl-2-(2,6-dimethoxy-4-pentylphenyl)-7,7-dimethylbicyclo[2.2.1]hept-2-ene-1-carboxylate], the Ki in test [2] is 0.168 µM; in test [1] (setting [7]), over 50 µM. Further, the values for the IC50 in test [3] and in test [4] (setting [9]) were over 50 µM and 0.313 µM, respectively. Moreover, in test [4] (setting [8]), the Emax came to 48 ± 5%.
Take `CCCCCc1cc(OC)c(C2=C[C@@H]3CC[C@@]2(C(=O)O)C3(C)C)c(OC)c1` [HU-973, (1R,4S)-2-(2,6-dimethoxy-4-pentylphenyl)-7,7-dimethylbicyclo[2.2.1]hept-2-ene-1-carboxylic acid]: the results for the Ki in test [2] and in test [1] (setting [7]) were 1.15 µM and over 50 µM, respectively. Further, the half-inhibitory concentration (IC50) in test [3] is over 50 µM; in test [4] (setting [9]), 2.09 µM. The Emax in test [4] (setting [8]) was 40 ± 6%.
As to `CCCCCc1cc(OC)c(C2=C[C@H]3CC[C@]2(C(=O)O)C3(C)C)c(OC)c1` [HU-974, (1S,4R)-2-(2,6-dimethoxy-4-pentylphenyl)-7,7-dimethylbicyclo[2.2.1]hept-2-ene-1-carboxylic acid], the Ki is over 10 µM in test [2] and over 50 µM in test [1] (setting [7]). Besides, the IC50 in test [3] and in test [4] was over 50 µM each time.
